Reference: patent publication US20240150294A1, “ESTROGEN RECEPTOR ALPHA ANTAGONISTS AND USES THEREOF” (The University of Chicago, priority 2021, published 2024)

tested on: MCF7 breast cancer cells; test: Crystal violet endpoint assay of MCF7 cellular viability; assay type: cell-based; settings: 500 nM, in the presence of 1 nM E2, 1 week
Excerpt: A crystal violet endpoint assay is useful for obtaining quantitative information about the relative density of cells adhering to multi-well cluster dishes. The crystal violet dye stains DNA. Upon solubilization, the amount of dye taken up by the monolayer can be quantified in a spectrophotometer or plate reader when the absorbance of each well is read at 570 nm. A crystal violet assay kit to measure cell viability is commercially available (e.g., Abcam, Cambridge, MA). All antagonist treatments were performed in the presence of 1 nM hormone (E2) for 1 week.

| SMILES | induction of apoptosis (cellular viability) |
| --- | --- |
| CCN1CCC(CCOc2ccc(C3c4ccc(O)cc4CC4(CC4)N3C(=O)c3ccccc3)cc2)C1 (stereo not drawn) [Compound 13] | appear to induce apoptosis |
| CCCN1CCC(COc2ccc(C3c4ccc(O)cc4CC4(CC4)N3C(=O)c3ccccc3)cc2)C1 (stereo not drawn) [Compound 14] | appear to induce apoptosis |

tested on: MCF7 breast cancer cells; test: Cellular proliferation of MCF7 breast cancer cells, 150 hours; assay type: cell-based; settings: 1 nM E2 + 1 μM compound, serum-starved 48 hours
Experimental: The abilities of exemplary compounds of formula (I) to inhibit the cellular proliferation of MCF7 breast cancer cells were measured. Cells were serum-starved for 48 hours before they were treated with either vehicle (DMSO), 1 nM hormone (estradiol [E2]), or 1 nM E2+1 μM compound in triplicate for 150 hours.

| SMILES | anti-proliferative activities (fold-change in cell count versus starting cell count) |
| --- | --- |
| CC1Cc2cc(O)ccc2C(c2ccc(OCC3CCN(CCCF)C3)cc2)N1C(=O)c1ccccc1 [35(R)] | modestly reduced the anti-proliferative activities compared compound 29 |
| CC1Cc2cc(O)ccc2C(c2ccc(OC[C@H]3CCN(CCCF)C3)cc2)N1C(=O)c1ccccc1 (stereo partly drawn) [35(S)] | modestly reduced the anti-proliferative activities compared compound 29 |
| CCCN1CC(COc2ccc(C3c4ccc(O)cc4CC4(CC4)N3C(=O)c3ccccc3)cc2)C1 (stereo not drawn) [Compound 4] | improved anti-proliferative activities compared to an ethylazetidine |
| CCCCN1CCC(COc2ccc(C3c4ccc(O)cc4CC4(CC4)N3C(=O)c3ccccc3)cc2)C1 (stereo not drawn) [Compound 22] | did not enhance anti-proliferative activities compared to compound 14 |
| CCCCCN1CCC(COc2ccc(C3c4ccc(O)cc4CC4(CC4)N3C(=O)c3ccccc3)cc2)C1 (stereo not drawn) [Compound 23] | did not enhance anti-proliferative activities compared to compound 14 |
| CCCN1CCC(CCc2ccc(C3c4ccc(O)cc4CC4(CC4)N3C(=O)c3ccccc3)cc2)C1 (stereo not drawn) [Compound 24] | reduced anti-proliferative activities compared to compound 14 |
| O=C(c1ccccc1)N1C(c2ccc(CCC3CCN(CCCF)C3)cc2)c2ccc(O)cc2CC12CC2 (stereo not drawn) [Compound 25] | reduced anti-proliferative activities compared to compound 14 |
| CCCN1CCC(CNc2ccc(C3c4ccc(O)cc4CC4(CC4)N3C(=O)c3ccccc3)cc2)C1 (stereo not drawn) [Compound 26] | reduced anti-proliferative activities compared to compound 14 |
| CCCN1CCC(CSc2ccc(C3c4ccc(O)cc4CC4(CC4)N3C(=O)c3ccccc3)cc2)C1 (stereo not drawn) [Compound 27] | did not show an appreciable difference in anti-proliferative activities compared to compound 14 |
| O=C(c1ccccc1)N1C(c2ccc(OCC3CCN(CCCF)C3)cc2)c2ccc(O)cc2CC12CC2 (stereo not drawn) [Compound 29] | enhanced anti-proliferative activities |
| O=C(c1ccccc1)N1C(c2ccc(OCC3CCN(CCCF)C3)cc2)c2ccccc2CC12CC2 (stereo not drawn) [Compound 34] | ablated anti-proliferative activities |

biological target: T1, ERα (Homo sapiens, UniProt P03372); test: Transcriptional reporter gene assay (estrogen response element-GFP) in MCF7 cells; assay type: cell-based; settings: ERE-controlled green fluorescent protein, reduction in fluorescence
T1 construct: endogenous in cells; host or cells: MCF7
T1 sequence (P03372 1-595): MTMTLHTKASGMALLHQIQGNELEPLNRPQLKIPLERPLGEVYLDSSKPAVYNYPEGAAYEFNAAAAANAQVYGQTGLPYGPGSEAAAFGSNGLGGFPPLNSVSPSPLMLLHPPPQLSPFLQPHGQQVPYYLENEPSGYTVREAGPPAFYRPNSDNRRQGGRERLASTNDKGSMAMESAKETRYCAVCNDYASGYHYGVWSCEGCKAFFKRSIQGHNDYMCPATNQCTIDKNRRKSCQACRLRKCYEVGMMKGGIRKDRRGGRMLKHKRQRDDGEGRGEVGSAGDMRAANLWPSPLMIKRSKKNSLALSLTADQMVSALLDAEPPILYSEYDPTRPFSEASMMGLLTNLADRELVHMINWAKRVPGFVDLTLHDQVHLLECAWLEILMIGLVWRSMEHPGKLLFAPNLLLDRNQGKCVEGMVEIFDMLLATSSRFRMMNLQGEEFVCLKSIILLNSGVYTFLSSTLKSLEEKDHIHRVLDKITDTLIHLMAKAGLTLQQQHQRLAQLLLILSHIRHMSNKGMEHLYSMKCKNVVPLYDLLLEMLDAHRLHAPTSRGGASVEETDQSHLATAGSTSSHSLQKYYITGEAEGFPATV
Experimental: The reduction in fluorescence was measured and the IC50 value (nM) was determined for various compounds of formula (I) in comparison to known antagonists.

| IC50 [nM] | SMILES |
| --- | --- |
| 3.85 | CC1CCN(CCOc2ccc(C3c4ccc(O)cc4CC4(CC4)N3C(=O)c3ccccc3)cc2)C1 (mixture of isomers) [Compound 16] |
| 358 | CCN1CC(Oc2ccc(C3c4ccc(O)cc4CC4(CC4)N3C(=O)c3ccccc3)cc2)C1 (stereo not drawn) [Compound 1] |
| 130 | CCCN1CC(Oc2ccc(C3c4ccc(O)cc4CC4(CC4)N3C(=O)c3ccccc3)cc2)C1 (stereo not drawn) [Compound 2] |
| 49.4 | O=C(c1ccccc1)N1C(c2ccc(OCCN3CCCCCC3)cc2)c2ccc(O)cc2CC12CC2 (stereo not drawn) [Compound 5] |
| 23.4 | O=C(c1ccccc1)N1C(c2ccc(OCCN3CCCCC3)cc2)c2ccc(O)cc2CC12CC2 (stereo not drawn) [Compound 6] |
| 58.8 | CCN1CCC(Oc2ccc(C3c4ccc(O)cc4CC4(CC4)N3C(=O)c3ccccc3)cc2)C1 (stereo not drawn) [Compound 12] |
| 21 | CCN1CCC(CCOc2ccc(C3c4ccc(O)cc4CC4(CC4)N3C(=O)c3ccccc3)cc2)C1 (stereo not drawn) [Compound 13] |
| 19 | CCCN1CCC(COc2ccc(C3c4ccc(O)cc4CC4(CC4)N3C(=O)c3ccccc3)cc2)C1 (stereo not drawn) [Compound 14] |
| 4.8 | C[C@H]1CCN(CCOc2ccc(C3c4ccc(O)cc4CC4(CC4)N3C(=O)c3ccccc3)cc2)C1 (stereo partly drawn) [Compound 15] |
| 744 | CN(C)CCOc1ccc(C2c3ccc(O)cc3CC3(CC3)N2C(=O)c2ccccc2)cc1 (stereo not drawn) [Compound 19] |
| 500 | CNCCOc1ccc(C2c3ccc(O)cc3CC3(CC3)N2C(=O)c2ccccc2)cc1 (stereo not drawn) [Compound 20] |
| 222 | CCNCCOc1ccc(C2c3ccc(O)cc3CC3(CC3)N2C(=O)c2ccccc2)cc1 (stereo not drawn) [Compound 21] |

| SMILES | IC50 [nM] |
| --- | --- |
| CC1=C(c2ccc(O)cc2)[C@H](c2ccc(OCCN3CC[C@@H](C)C3)cc2)Oc2cc(O)ccc21 [OP1074, reference compound] | 0.17 |

tested on: halo-ERα; test: ERα cellular stability, live-cell halo-ERα assay in T47D breast cancer cells; assay type: cell-based; settings: 0 to 10 μM, 24 hours
Experimental: T47D breast cancer cell lines were generated with stable Tet-ON wild type (WT), Y537S mutation, or D538G halo-ERα mutation and enriched through flow sorting. Cells were cultured for 48 hours in media supplemented with charcoal-stripped fetal bovine serum (FBS) in puromycin. Subsequently, 1 μg/mL doxycycline was added to induce expression and 1 μM G618 antibody was added to follow the expression of the halo-tagged proteins. Cells were then treated with increasing concentrations of a compound of interest between 0 and 10 μM for 24 hours. After treatment, cells were imaged using an INUCYTE™ S3 (Essen BioScience, Ann Arbor, MI). ERα degradation was quantified by using the red channel integrated intensity per image normalized to phase channel confluence area.
Tissue specific activities often correlate with a molecule's influence on ERα levels.

| SMILES | influence on ERα levels (SERM-like / SERD-like profile) |
| --- | --- |
| CCN1CC(Oc2ccc(C3c4ccc(O)cc4CC4(CC4)N3C(=O)c3ccccc3)cc2)C1 (stereo not drawn) [Compound 1] | weak SERD-like profile |
